Experimental data taken from US7320984B2, “Remedies or preventives for urinary frequency or urinary incontinence and morphinan derivatives having nitrogen-containing heterocyclic group” (Toray Industries, Inc., priority 2002, dated 2008).

Tested on: rhythmic bladder contractions in rats
Assay: Inhibitory effect against rhythmic bladder contractions in rats
Assay type: in vivo
Settings: anesthetized female SD rats, intravenous
Procedure: Inhibitory Effect Against Rhythmic Bladder Contractions in Rats
Female SD rats were anesthetized with an intraperitoneal administration of urethane (1.0 g/kg). A polyethylene tube was inserted from the urethra to the bladder and the tube was fixed by ligation. Then physiological saline was appropriately infused (infusion rate: about 0.2 ml/min., maximum: about 1.5 ml/animal) through the tube to cause rhythmic bladder contractions. The rhythmic bladder contractions were monitored by measuring the intravesical pressure through a polyethylene tube inserted into the bladder. After confirming that stable rhythmic bladder contractions occurred at least 10 times, a vehicle containing a prescribed dose of a test compound was intravenously administration at a dose of 1 ml/kg. In cases where the intravesical pressure, within 10 minutes after the administration of the test compound, decreased to 50% or less of the intravesical pressure immediately […] the administration, the test compound was judged as having inhibitory effect against urinary bladder contractions, and the time period until the intravesical pressure returned to more than 50% was defined as inhibitory time of rhythmic bladder contractions. As the vehicle for administration, physiological saline was used for test compounds 4, 7, 8, 9, 10, 13, 29, 30, 31, 33, 34, 75, 76, 79, 80, 81, 82, 84, 89, 90, 91, 93, 94, 95, 110 and 111, aqueous 10% dimethylsulfoxide (DMSO) solution was used for test compounds 11, 12, 14, 15, 16, 17, 18, 20, 21, 23, 28, 46, 47, 50, 55, 56, 57, 58, 59, 60, 61, 62, 63, 64, 65, 66, 68, 69, 70, 71, 72, 73, 74, 77, 78, 83, 85, 86, 87, 88, 92, 96, 97, 98, 99, 100, […], 103, 104, 105, 106, 107, 108 and […], aqueous 20% dimethylsulfoxide (DMSO) solution was used for test compounds 1, 2, 67 and 101, and aqueous 5% xylitol solution was used for test compounds 5 and 35. The aqueous 10% DMSO solution, aqueous 20% DMSO solution and the aqueous 5% xylitol solution per se, which may influence on the inhibitory time of rhythmic bladder contractions, were also tested at a dose of 1 ml/kg. With any of the compounds, prolongation of the inhibitory time of rhythmic bladder contractions was observed when compared with that obtained in the group to which the vehicle alone was administered.

CCN(CC)C(=O)[C@@H]1CCCN1[C@H]1CC[C@H]2[C@H]3Cc4ccc(O)c5c4[C@@]2(CCN3C)[C@H]1O5 [Compound 31, 1-(4,5α-epoxy-3-hydroxy-17-methyl-morphinan-6α-yl)-pyrrolidin-(2S)-carboxyl diethylamide]
Mean Inhibitory Time of Rhythmic Bladder Contractions (dose 1.0 mg/kg body weight): 1.0 min

CCN(CC)C(=O)C1CCCN([C@@H]2CC[C@@]3(O)[C@H]4Cc5ccc(O)c6c5[C@@]3(CCN4C)[C@H]2O6)C1 (stereo partly drawn) [Compound 33, 1-(4,5α-epoxy-3,14-dihydroxy-17-methyl-3-morphinan-6β-yl)-piperidin-3-carboxyl diethylamide]
Mean Inhibitory Time of Rhythmic Bladder Contractions (dose 3.0 mg/kg body weight): 2.1 min

O=C1CCCN1[C@H]1CC[C@@]2(O)[C@H]3Cc4ccc(O)c5c4[C@@]2(CCN3CC2CC2)[C@H]1O5 [Compound 34, 1-(17-cyclopropylmethyl-4,5α-epoxy-3,14-dihydroxy-morphinan-6α-yl)-pyrrolidin-2-one]
Mean Inhibitory Time of Rhythmic Bladder Contractions (dose 1.0 mg/kg body weight): 9.2 min

O=C1C(Cc2ccccc2)CCN1[C@H]1CC[C@@]2(O)[C@H]3Cc4ccc(O)c5c4[C@@]2(CCN3CC2CC2)[C@H]1O5 (stereo partly drawn) [Compound 35, 1-(17-cyclopropylmethyl-4,5α-epoxy-3,14-dihydroxy-morphinan-6α-yl)-3-benzyl-pyrrolidin-2-one]
Mean Inhibitory Time of Rhythmic Bladder Contractions (dose 0.3 mg/kg body weight): 29.9 min

O=C1CCCN1[C@@H]1CC[C@@]2(O)[C@H]3Cc4ccc(O)c5c4[C@@]2(CCN3CC2CC2)[C@H]1O5 [Compound 46, 1-(17-cyclopropylmethyl-4,5α-epoxy-3,14-dihydroxy-morphinan-6β-yl)-pyrrolidin-2-one]
Mean Inhibitory Time of Rhythmic Bladder Contractions (dose 1.0 mg/kg body weight): 20.0 min

O=C1C(Cc2ccccc2)CCN1[C@@H]1CC[C@@]2(O)[C@H]3Cc4ccc(O)c5c4[C@@]2(CCN3CC2CC2)[C@H]1O5 (stereo partly drawn) [Compound 47, 1-(17-cyclopropylmethyl-4,5α-epoxy-3,14-dihydroxy-morphinan-6β-yl)-3-benzyl-pyrrolidin-2-one]
Mean Inhibitory Time of Rhythmic Bladder Contractions (dose 1.0 mg/kg body weight): 21.8 min

O=C1/C(=C/c2ccccc2)CCN1[C@@H]1CC[C@@]2(O)[C@H]3Cc4ccc(O)c5c4[C@@]2(CCN3CC2CC2)[C@H]1O5 [Compound 50, 1-(17-cyclopropylmethyl-4,5α-epoxy-3,14-dihydroxy-morphinan-6β-yl)-3-benzylidene-pyrrolidin-2-one]
Mean Inhibitory Time of Rhythmic Bladder Contractions (dose 0.1 mg/kg body weight): 12.8 min

O=C1c2cc(Cl)c(Cl)cc2C(=O)N1[C@@H]1CC[C@@]2(O)[C@H]3Cc4ccc(O)c5c4[C@@]2(CCN3CC2CC2)[C@H]1O5 [Compound 55, N-[17-(cyclopropylmethyl)-4,5α-epoxy-3,14-dihydroxymorphinan-6β-yl]-4,5-dichlorophthaimide]
Mean Inhibitory Time of Rhythmic Bladder Contractions (dose 0.1 mg/kg body weight): 15.0 min

C=CCN1CC[C@]23c4c5ccc(O)c4O[C@H]2[C@H](N2C(=O)c4ccc(C)cc4C2=O)CC[C@@]3(O)[C@H]1C5 [Compound 56, N-(17-allyl-4,5α-epoxy-3,14-dihydroxymorphinan-6β-yl)-4-methylphthalimide]
Mean Inhibitory Time of Rhythmic Bladder Contractions (dose 0.1 mg/kg body weight): 13.7 min

C=CCN1CC[C@]23c4c5ccc(O)c4O[C@H]2[C@H](N2C(=O)c4ccc(Cl)cc4C2=O)CC[C@@]3(O)[C@H]1C5 [Compound 57, N-(17-allyl-4,5α-epoxy-3,14-dihydroxymorphinan-6β-yl)-4-chlorophthalimide]
Mean Inhibitory Time of Rhythmic Bladder Contractions (dose 0.1 mg/kg body weight): 24.2 min

C=CCN1CC[C@]23c4c5ccc(O)c4O[C@H]2[C@H](N2C(=O)c4ccc(F)cc4C2=O)CC[C@@]3(O)[C@H]1C5 [Compound 58, N-(17-allyl-4,5α-epoxy-3,14-dihydroxymorphinan-6β-yl)-4-fluorophthalimide]
Mean Inhibitory Time of Rhythmic Bladder Contractions (dose 0.03 mg/kg body weight): 19.3 min

C=CCN1CC[C@]23c4c5ccc(O)c4O[C@H]2[C@H](N2C(=O)c4cc(Cl)c(Cl)cc4C2=O)CC[C@@]3(O)[C@H]1C5 [Compound 59, N-(17-allyl-4,5α-epoxy-3,14-dihydroxymorphinan-6β-yl)-4,5-dichlorophthalimide]
Mean Inhibitory Time of Rhythmic Bladder Contractions (dose 0.1 mg/kg body weight): 6.1 min

C=CCN1CC[C@]23c4c5ccc(O)c4O[C@H]2[C@H](N2C(=O)c4cccc(C)c4C2=O)CC[C@@]3(O)[C@H]1C5 [Compound 60, N-(17-allyl-4,5α-epoxy-3,14-dihydroxymorphinan-6β-yl)-3-methylphthalimide]
Mean Inhibitory Time of Rhythmic Bladder Contractions (dose 0.03 mg/kg body weight): 19.7 min

C=CCN1CC[C@]23c4c5ccc(O)c4O[C@H]2[C@@H](N2C(=O)c4cccc(C)c4C2=O)CC[C@@]3(O)[C@H]1C5 [Compound 61, N-(17-allyl-4,5α-epoxy-3,14-dihydroxymorphinan-6α-yl)-3-methylphthalimide]
Mean Inhibitory Time of Rhythmic Bladder Contractions (dose 0.03 mg/kg body weight): 22.6 min

C=CCN1CC[C@]23c4c5ccc(O)c4O[C@H]2[C@H](N2C(=O)c4cccc(F)c4C2=O)CC[C@@]3(O)[C@H]1C5 [Compound 62, N-(17-allyl-4,5α-epoxy-3,14-dihydroxymorphinan-6β-yl)-3-fluorophthalimide]
Mean Inhibitory Time of Rhythmic Bladder Contractions (dose 0.01 mg/kg body weight): 15.3 min

C=CCN1CC[C@]23c4c5ccc(O)c4O[C@H]2[C@@H](N2C(=O)c4cccc(F)c4C2=O)CC[C@@]3(O)[C@H]1C5 [Compound 63, N-(17-allyl-4,5α-epoxy-3,14-dihydroxymorphinan-6α-yl)-3-fluorophthalimide]
Mean Inhibitory Time of Rhythmic Bladder Contractions (dose 0.005 mg/kg body weight): 16.1 min

C=CCN1CC[C@]23c4c5ccc(O)c4O[C@H]2[C@@H](N2C(=O)c4ccccc4C2=O)CC[C@@]3(O)[C@H]1C5 [Compound 64, N-(17-allyl-4,5α-epoxy-3,14-dihydroxymorphinan-6α-yl)-phthalimide]
Mean Inhibitory Time of Rhythmic Bladder Contractions (dose 0.01 mg/kg body weight): 20.8 min

C=CCN1CC[C@]23c4c5ccc(O)c4O[C@H]2[C@@H](N2C(=O)c4ccc(F)cc4C2=O)CC[C@@]3(O)[C@H]1C5 [Compound 65, N-(17-allyl-4,5α-epoxy-3,14-dihydroxymorphinan-6α-yl)-4-fluorophthalimide]
Mean Inhibitory Time of Rhythmic Bladder Contractions (dose 0.01 mg/kg body weight): 18.6 min

O=C1c2ccccc2C(=O)N1[C@H]1CC[C@@]2(O)[C@H]3Cc4ccc(O)c5c4[C@@]2(CCN3CC2CC2)[C@H]1O5 [Compound 66, N-(17-cyclopropylmethyl-4,5α-epoxy-3,14-dihydroxymorphinan-6α-yl)-phthalimide]
Mean Inhibitory Time of Rhythmic Bladder Contractions (dose 0.003 mg/kg body weight): 27.4 min

O=C1c2cccc(F)c2C(=O)N1[C@H]1CC[C@@]2(O)[C@H]3Cc4ccc(O)c5c4[C@@]2(CCN3CC2CC2)[C@H]1O5 [Compound 67, N-(17-cyclopropylmethyl-4,5α-epoxy-3,14-dihydroxymorphinan-6α-yl)-3-fluorophthalimide]
Mean Inhibitory Time of Rhythmic Bladder Contractions (dose 0.003 mg/kg body weight): 27.3 min

O=C1c2ccc(F)cc2C(=O)N1[C@H]1CC[C@@]2(O)[C@H]3Cc4ccc(O)c5c4[C@@]2(CCN3CC2CC2)[C@H]1O5 [Compound 68, N-(17-cyclopropylmethyl-4,5α-epoxy-3,14-dihydroxymorphinan-6α-yl)-4-fluorophthalimide]
Mean Inhibitory Time of Rhythmic Bladder Contractions (dose 0.001 mg/kg body weight): 18.0 min

O=C1[C@H]2CCCC[C@H]2C(=O)N1[C@@H]1CC[C@@]2(O)[C@H]3Cc4ccc(O)c5c4[C@@]2(CCN3CC2CC2)[C@H]1O5 [Compound 69, N-(17-cyclopropylmethyl-4,5α-epoxy-3,14-dihydroxymorphinan-6β-yl)-hexahydrophthalimide]
Mean Inhibitory Time of Rhythmic Bladder Contractions (dose 0.1 mg/kg body weight): 15.7 min

O=C1C(c2ccccc2)=C(c2ccccc2)C(=O)N1[C@@H]1CC[C@@]2(O)[C@H]3Cc4ccc(O)c5c4[C@@]2(CCN3CC2CC2)[C@H]1O5 [Compound 70, N-(17-cyclopropylmethyl-4,5α-epoxy-3,14-dihydroxymorphinan-6β-yl)-2,3-diphenylmaleimide]
Mean Inhibitory Time of Rhythmic Bladder Contractions (dose 0.1 mg/kg body weight): 8.9 min

O=C1CC(c2ccccc2)C(=O)N1[C@@H]1CC[C@@]2(O)[C@H]3Cc4ccc(O)c5c4[C@@]2(CCN3CC2CC2)[C@H]1O5 (stereo partly drawn) [Compound 71, N-(17-cyclopropylmethyl-4,5α-epoxy-3,14-dihydroxymorphinan-6β-yl)-2-phenyl-succinimide]
Mean Inhibitory Time of Rhythmic Bladder Contractions (dose 0.1 mg/kg body weight): 24.9 min

C=CCN1CC[C@]23c4c5ccc(O)c4O[C@H]2[C@H](N2C(=O)C4=C(CCCC4)C2=O)CC[C@@]3(O)[C@H]1C5 [Compound 73, N-(17-allyl-4,5α-epoxy-3,14-dihydroxymorphinan-6β-yl)-3,4,5,6-tetrahydrophthalimide]
Mean Inhibitory Time of Rhythmic Bladder Contractions (dose 0.03 mg/kg body weight): 13.4 min

C=CCN1CC[C@]23c4c5ccc(O)c4O[C@H]2[C@@H](N2C(=O)C4=C(CCCC4)C2=O)CC[C@@]3(O)[C@H]1C5 [Compound 74, N-(17-allyl-4,5α-epoxy-3,14-dihydroxymorphinan-6α-yl)-3,4,5,6-tetrahydrophthalimide]
Mean Inhibitory Time of Rhythmic Bladder Contractions (dose 0.03 mg/kg body weight): 24.0 min
